Experimental findings from the NIST ThermoML archive (doi:10.1016/j.jct.2019.02.019) are described below.

For orientation: viscosity means the resistance of a fluid to flow. By mass density is commonly meant mass per unit of volume.

The conditions of series [1]: 101 kPa, Liquid; for viscosity: Capillary tube (Ostwald / Ubbelohde) method; for mass density: Vibrating tube method.
The nature of series [2]: xn = mol fraction of the nth substance listed. The following applies: 101 kPa, Liquid, x2 = 0; for viscosity: Capillary tube (Ostwald / Ubbelohde) method; for mass density: Vibrating tube method.

Numbers after ± are expanded uncertainties.

For `CCO` [ethanol], the viscosity in series [1] (293.15 K) is recorded as 1.17 ± 0.05 mPa·s; in series [1] (303.15 K), 0.97 ± 0.04 mPa·s; in series [1] (313.15 K), 0.81 ± 0.03 mPa·s; in series [1] (323.15 K) it was 0.69 ± 0.03 mPa·s. Also, the mass density in series [1] (293.15 K) was found to be 788.88 ± 1 kg/m3; in series [1] (303.15 K), 781.69 ± 1 kg/m3; in series [1] (313.15 K), 772.3 ± 1 kg/m3; in series [1] (323.15 K), 765.29 ± 1 kg/m3.
For `NCCO` [2-aminoethan-1-ol] + CN(CCO)CCO, the viscosity was found to be 23.4 ± 0.95 mPa·s in series [2] (293.15 K), 14.71 ± 0.6 mPa·s in series [2] (303.15 K), 9.77 ± 0.4 mPa·s in series [2] (313.15 K) and 6.83 ± 0.28 mPa·s in series [2] (323.15 K). Further, the mass density in series [2] (293.15 K) was 1016.3 ± 1 kg/m3; in series [2] (303.15 K) it was 1008.02 ± 1 kg/m3; in series [2] (313.15 K), 999.98 ± 1 kg/m3; in series [2] (323.15 K), 991.97 ± 1 kg/m3.
Regarding `CCO` [ethanol] + NCCO, the viscosity is given as 1.17 ± 0.05 mPa·s in series [2] (293.15 K), 0.97 ± 0.04 mPa·s in series [2] (303.15 K), 0.81 ± 0.03 mPa·s in series [2] (313.15 K) and 0.69 ± 0.03 mPa·s in series [2] (323.15 K). The mass density in series [2] (293.15 K) amounted to 788.88 ± 1 kg/m3; in series [2] (303.15 K), 781.69 ± 1 kg/m3; in series [2] (313.15 K), 772.3 ± 1 kg/m3; in series [2] (323.15 K) it was 765.29 ± 1 kg/m3.
Regarding `CN(CCO)CCO` [N-methyldiethanolamine], the viscosity in series [1] (293.15 K) is 103.04 ± 4.3 mPa·s; in series [1] (303.15 K), 57.28 ± 2.3 mPa·s; in series [1] (313.15 K), 33.94 ± 1.4 mPa·s; in series [1] (323.15 K), 21.31 ± 0.87 mPa·s. Also, the mass density was found to be 1040.5 ± 1 kg/m3 in series [1] (293.15 K), 1032.6 ± 1 kg/m3 in series [1] (303.15 K), 1024.76 ± 1 kg/m3 in series [1] (313.15 K) and 1017.12 ± 1 kg/m3 in series [1] (323.15 K).
`NCCO` [2-aminoethan-1-ol]: the viscosity in series [1] (293.15 K) stood at 23.4 ± 0.95 mPa·s; in series [1] (303.15 K), 14.71 ± 0.6 mPa·s; in series [1] (313.15 K) it was 9.77 ± 0.4 mPa·s; in series [1] (323.15 K) it was 6.83 ± 0.28 mPa·s. In addition, the mass density in series [1] (293.15 K) is reported as 1016.3 ± 1 kg/m3; in series [1] (303.15 K), 1008.02 ± 1 kg/m3; in series [1] (313.15 K), 999.98 ± 1 kg/m3; in series [1] (323.15 K) it was 991.97 ± 1 kg/m3.
Regarding `CCO` [ethanol] + CN(CCO)CCO, the viscosity in series [2] (293.15 K) stood at 1.17 ± 0.05 mPa·s; in series [2] (303.15 K) it was 0.97 ± 0.04 mPa·s; in series [2] (313.15 K), 0.81 ± 0.03 mPa·s; in series [2] (323.15 K), 0.69 ± 0.03 mPa·s. The mass density in series [2] (293.15 K) turned out to be 788.88 ± 1 kg/m3; in series [2] (303.15 K) it was 781.69 ± 1 kg/m3; in series [2] (313.15 K) it was 772.3 ± 1 kg/m3; in series [2] (323.15 K), 765.29 ± 1 kg/m3.
